Converted amounts (≈) assume the structure as drawn.
Tested on: Mycobacterium tuberculosis
Assay: Antitubercular activity against Mycobacterium africanum ATCC 25420 assessed as bacterial growth inhibition by agar dilution method
Format: functional
Details: variant africanum ATCC 25420

`O=C1CCc2c(cccc2OC[C@]2(O)CCN(c3c(F)cc(Cl)cc3F)C[C@H]2O)N1` showed an MIC of 2 ng/mL (≈ 4.56 nM).
